One may read the pIC50 as the IC50 on a negative log10 scale, so that one unit is a factor of ten. The low end stands for a high IC50, the high end for a low IC50.

Each structure is given as a SMILES string. pIC50: −log10 of the molar value.

From patent US10392404B2, “Compounds and compositions as kinase inhibitors” (NOVARTIS AG, priority 2014, dated 2019) come the findings set out here.

One experiment addresses T1, C-RAF (Homo sapiens, UniProt P04049, Y340E/Y341E).
T1 construct: His tag (implied by nickel chromatography) (cleaved yes); StrepII tag (cleaved yes); made in house; host or cells: Sf9 insect cells (baculovirus), CRAF and h14-3-3 zeta co-expressed; MEK1 substrate from E. coli
The experiment is described as follows: In vitro Raf activity determination (Alpha Screen, biotinylated kinase-dead MEK1 substrate), C-Raf. In kind it is biochemical. The conditions noted are these: c-Raf approximately 4 nM; ATP 1 μM; pre-incubation 60 minutes; reaction 1 hour at room temperature. The procedure, abridged:
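Full-length C-Raf carrying Y340E/Y341E, co-expressed with 14-3-3ζ in Sf9 cells, at approximately 4 nM, with approximately 10 nM biotinylated kinase-dead MEK1 (K97R) and 1 μM ATP, pH 7.5. Compound preincubated 60 min, reaction 1 hour at room temperature. Phospho-MEK read by AlphaScreen; IC50 by non-linear regression.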

A further experiment addresses T2, b-Raf (V600E) (Homo sapiens, UniProt P15056, V600E).
T2 construct: made in house
The experiment is described as follows: In vitro Raf activity determination (Alpha Screen, biotinylated kinase-dead MEK1 substrate), B-Raf. Type of experiment: biochemical. The conditions noted are these: b-Raf (V600E) approximately 4 pM; ATP 10 μM; pre-incubation 60 minutes; reaction 3 hours at room temperature. In outline: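 Activated b-Raf(V600E) (~4 pM) pre-incubated 60 min with compound and biotinylated kinase-dead (K97R) MEK1 (~10 nM), then reacted 3 h at room temperature with 10 μM ATP in 50 mM Tris pH 7.5, 15 mM MgCl2, 0.01% BSA, 1 mM DTT. Phospho-MEK detected by AlphaScreen; IC50 by non-linear regression.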

T2 sequence (P15056 whole entry V600E): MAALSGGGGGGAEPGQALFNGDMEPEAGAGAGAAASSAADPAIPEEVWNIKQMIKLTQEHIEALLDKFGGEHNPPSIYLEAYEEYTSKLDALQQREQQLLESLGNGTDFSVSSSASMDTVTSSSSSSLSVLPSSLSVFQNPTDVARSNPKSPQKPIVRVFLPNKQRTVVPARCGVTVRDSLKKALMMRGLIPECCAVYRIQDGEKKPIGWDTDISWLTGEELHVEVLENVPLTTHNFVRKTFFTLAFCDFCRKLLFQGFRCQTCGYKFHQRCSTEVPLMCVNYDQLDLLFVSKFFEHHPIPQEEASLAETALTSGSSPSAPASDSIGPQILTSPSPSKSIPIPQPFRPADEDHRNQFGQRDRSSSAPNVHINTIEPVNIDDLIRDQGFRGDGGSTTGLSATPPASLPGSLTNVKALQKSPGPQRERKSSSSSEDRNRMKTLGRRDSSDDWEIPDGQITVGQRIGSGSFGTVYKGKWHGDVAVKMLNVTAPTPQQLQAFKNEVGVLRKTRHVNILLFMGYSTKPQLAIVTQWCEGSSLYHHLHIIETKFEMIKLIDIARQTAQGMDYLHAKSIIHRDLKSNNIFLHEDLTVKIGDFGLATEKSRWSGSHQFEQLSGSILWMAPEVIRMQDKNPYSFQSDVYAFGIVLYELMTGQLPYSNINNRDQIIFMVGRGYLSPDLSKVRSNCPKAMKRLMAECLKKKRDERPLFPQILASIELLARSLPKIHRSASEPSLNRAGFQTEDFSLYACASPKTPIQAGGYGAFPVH
T1 sequence (P04049 whole entry Y340E/Y341E): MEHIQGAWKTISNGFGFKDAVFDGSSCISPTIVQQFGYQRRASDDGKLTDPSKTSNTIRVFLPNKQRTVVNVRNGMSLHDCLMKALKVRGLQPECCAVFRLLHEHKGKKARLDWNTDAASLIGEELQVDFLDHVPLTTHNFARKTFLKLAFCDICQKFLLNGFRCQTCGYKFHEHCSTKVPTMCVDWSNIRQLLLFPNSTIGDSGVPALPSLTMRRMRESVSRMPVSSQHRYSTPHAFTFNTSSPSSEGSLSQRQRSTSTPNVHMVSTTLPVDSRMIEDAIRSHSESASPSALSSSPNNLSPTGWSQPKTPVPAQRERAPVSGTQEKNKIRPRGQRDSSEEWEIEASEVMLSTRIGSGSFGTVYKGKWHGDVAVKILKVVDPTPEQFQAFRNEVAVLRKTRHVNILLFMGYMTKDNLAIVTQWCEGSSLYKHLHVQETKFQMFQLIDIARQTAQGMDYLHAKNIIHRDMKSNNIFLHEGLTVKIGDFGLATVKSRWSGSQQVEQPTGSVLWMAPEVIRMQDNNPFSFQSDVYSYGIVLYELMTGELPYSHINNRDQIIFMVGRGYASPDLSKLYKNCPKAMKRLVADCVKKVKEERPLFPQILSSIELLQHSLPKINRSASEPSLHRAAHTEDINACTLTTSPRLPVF
T1 sequence (P63104 whole entry partner): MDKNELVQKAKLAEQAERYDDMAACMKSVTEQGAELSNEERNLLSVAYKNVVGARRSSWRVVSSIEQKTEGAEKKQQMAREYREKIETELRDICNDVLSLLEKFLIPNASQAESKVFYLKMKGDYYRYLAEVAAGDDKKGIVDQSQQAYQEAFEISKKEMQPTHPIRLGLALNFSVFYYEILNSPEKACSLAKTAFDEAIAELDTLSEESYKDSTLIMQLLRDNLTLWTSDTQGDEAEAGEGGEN

Consider `Cc1ncc(NC(=O)c2ccnc(C(C)(C)F)c2)cc1-c1cnc(N2CC(C)(O)C2)c(C#N)c1` [Example 193, N-(5′-cyano-6′-(3-hydroxy-3-methylazetidin-1-yl)-2-methyl-[3,3′-bipyridin]-5-yl)-2-(2-fluoropropan-2-yl)isonicotinamide], for which the figures for the pIC50 at C-RAF and against b-Raf (V600E) were 8.76 and 8.10, respectively.
On the same counts, the results for `CCn1cc(C(=O)Nc2ccc(C)c(-c3cnc(N4CCNCC4)c(C#N)c3)c2)cc(C(F)(F)F)c1=O` [Example 162, N-(3-(5-cyano-6-(piperazin-1-yl)pyridin-3-yl)-4-methylphenyl)-1-ethyl-6-oxo-5-(trifluoromethyl)-1,6-dihydropyridine-3-carboxamide] are 9.28 and 8.60.
Consider `COCCNc1ncc(-c2cc(NC(=O)c3cnnc(C(C)(C)C#N)c3)ccc2C)cc1C#N` [Example 201, N-(3-(5-cyano-6-((2-methoxyethyl)amino)pyridin-3-yl)-4-methylphenyl)-6-(2-cyanopropan-2-yl)pyridazine-4-carboxamide], for which the pIC50 is 9.35 against C-RAF and 8.52 on b-Raf (V600E).
Regarding `Cc1ccc(NC(=O)c2cc(C(C)(C)N)cc(C(F)(F)F)c2)cc1-c1cnc(-c2cnn(C)c2)c(C#N)c1` [Example 273, 3-(2-aminopropan-2-yl)-N-(3-(5-cyano-6-(1-methyl-1H-pyrazol-4-yl)pyridin-3-yl)-4-methylphenyl)-5-(trifluoromethyl) benzamide], the figures for the pIC50 against C-RAF and against b-Raf (V600E) were 9.00 and 8.40, respectively.
On the same counts, the results for `Cc1ncc(NC(=O)c2ccnc(C(F)(F)F)c2)cc1-c1cnc(N2CCS(=O)(=O)CC2)c(C#N)c1` [Example 86, N-(5′-cyano-6′-(1,1-dioxidothiomorpho-lino)-2-methyl-[3,3′-bipyridin]-5-yl)-2-(trifluoromethyl) isonicotinamide] are 9.36 and 8.53.
For `Cc1ncc(NC(=O)c2ccnc(C(C)(C)C#N)c2)cc1-c1cnc(NC2CCOC2)c(C#N)c1` (centres unmarked) [Example 77, N-(5′-cyano-2-methyl-6′-((tetrahydrofuran-3-yl)amino)-[3,3′-bipyridin]-5-yl)-2-(2-cyanopropan-2-yl)isonicotinamide], in that order: 8.60 and 8.03.
On the same counts, the results for `Cc1ncc(NC(=O)c2cnnc(C(F)(F)F)c2)cc1-c1cnc(C2CCOCC2)c(C#N)c1` [Example 144, N-(5′-cyano-2-methyl-6′-(tetrahydro-2H-pyran-4-yl)-[3,3′-bipyridin]-5-yl)-6-(trifluoromethyl) pyridazine-4-carboxamide] are 7.90 and 7.12.
